{"source": "patent EP2718307B1", "about": "“BETA-HAIRPIN PEPTIDOMIMETICS AS CXC4 ANTAGONISTS” (Polyphor AG, priority 2011, dated 2012)", "key": {"[1]": {"tested_on": "human red blood cells (hRBC)", "test": "Hemolysis", "type": "cell-based", "details": "100 µM, 20% hRBC, 1 h at 37°C", "description": "The peptides were tested for their hemolytic activity against human red blood cells (hRBC). Fresh hRBC were washed four times with phosphate buffered saline (PBS) and centrifuged for 10 min at 3000 x g. Compounds (100 µM) were incubated with 20% hRBC (v/v) for 1 h at 37°C and shaking at 300 rpm. The final erythrocyte concentration was approximately 0.9 x 10^9 cells/mL. A value of 0% and 100% cell lysis, respectively, was determined by incubation of hRBC in the presence of PBS containing 0.001% acetic acid and 2.5% Triton X-100 in H2O respectively. The samples were centrifuged, the supernatants were 8-fold diluted in PBS buffer and the optical densities (OD) were measured at 540 nm. The 100% lyses value (OD540H2O) gave an OD540 of approximately 0.5-1.0. Percent hemolysis was calculated as follows: (OD540peptide/OD540H2O) x 100%. [formula]"}, "[2]": {"test": "Plasma stability, mouse plasma", "type": "in vitro ADME", "details": "mouse plasma, 37° C, last time point 1440 min", "description": "(§1) The stability of the peptides in human and mouse plasma was determined by applying the following method: 346.5 µL/deep well of freshly thawed human plasma (Basler Blutspende-dienst) and mouse plasma (Harlan Sera-Lab, UK), respectively, were spiked with 3.5 µL/well of compound dissolved in DMSO/H2O (90/10 [v/v], 1 mM, triplicate) and incubated at 37° C. At t = 0, 15, 30, 60, 120, 240 and 1440 min aliquots of 50 µL were transferred to filtration plate wells containing 150 µL/well of 2% formic acid in acetonitrile. Following shaking for 2 min the occurred suspensions were filtrated by vacuum. 100 µL of each filtrate were transferred to a propylene microtiter plate and dried under N2. The residual solids were reconstituted by adding 100 µL/well of water/acetonitrile, 95/5 (v/v) + 0.2% formic acid and analyzed by LC/MS as follows: Column: Waters, XBridge C18, mobile phases: (A) water + 0.1% formic acid and (B) acetonitrile/water, 95/5 (v/v) + 0.1% formic acid, gradient: 5%-100% (B) in 1.8 minutes, electrospray ionization, MRM detection (triple quadrupole). The peak areas were determined and triplicate values are averaged. The stability is expressed in percent of the initial value at t = 0. (tx/t0 x 100). By using the TREND function of EXCEL (Microsoft Office 2003) T1/2 were determined."}, "CXCR4 receptor": {"target": "T1, CXCR4 receptor (Homo sapiens, UniProt P61073)", "T1 construct": "Namalwa cells (CXCR4 natively expressing non-adherent cells, ATCC CRL-1432); host or cells: Namalwa cells", "T1 sequence (P61073 whole entry)": "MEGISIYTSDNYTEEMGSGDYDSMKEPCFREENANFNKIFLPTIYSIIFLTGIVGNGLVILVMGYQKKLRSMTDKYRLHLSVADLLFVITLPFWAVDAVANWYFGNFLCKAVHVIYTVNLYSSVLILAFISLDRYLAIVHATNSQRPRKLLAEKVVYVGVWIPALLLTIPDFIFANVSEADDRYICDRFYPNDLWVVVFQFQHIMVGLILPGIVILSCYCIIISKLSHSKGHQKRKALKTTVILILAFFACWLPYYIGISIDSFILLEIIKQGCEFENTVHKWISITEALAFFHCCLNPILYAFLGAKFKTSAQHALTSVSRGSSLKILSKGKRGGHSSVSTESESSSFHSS", "test": "Chemotactic assay (cell migration assay): response of Namalwa cells to an SDF-1 gradient", "type": "cell-based", "description": "Namalwa cells (CXCR4 natively expressing non-adherent cells, ATCC CRL-1432) were cultured in RPMI1640 plus 10% FBS, and pen/strept. HELA cells were maintained in RPMI1640 plus 10% FBS, pen/strept and 2 mM L-glutamine. Cos-7 cells were grown in DMEM medium with […] glucose supplemented with 10% FCS, pen/strept and 2 mM L-glutamine. All cell lines were grown at 37 °C at 5% CO2. Cell media, media supplements, PBS-buffer, HEPES, antibiotic/antimycotic, pen/strept, non essential amino acid, L-glutamine, β-mercaptoethanol and sera were purchased from Gibco (Pailsey, UK). All fine chemicals were supplied by Merck (Darmstadt, Germany).\nThe chemotactic response of Namalwa cells (ATCC CRL-1432) to a gradient of stromal cell-derived factor 1α (SDF-1) was measured using a modified Boyden chamber chemotaxis system (ChemoTx; Neuroprobe). In this system, the upper chamber of each well is separated from the lower chamber containing the chemoattractant SDF-1 by a polycarbonate membrane (5µm pore size). A circular area of that membrane in the region that covers each lower well is enclosed by a hydrophobic mask to retain the cell suspension within this area. The system was prepared by loading the bottom wells with aliquots of […] chemotaxis medium (RPMI 1640 without Phenol red + 0.5% BSA) comprising either appropriate serial dilutions of peptides or no peptide at all in combination with SDF-1 (0.9 nM) or without the chemoattractant. The membrane was placed over the bottom wells, and aliquots of 50 µL of a suspension of Namalwa cells (3.6 x 10^6 cells/mL) in chemotaxis medium, premixed with chemotaxis medium comprising either appropriate serial dilutions of peptides or no peptide at all, was delivered onto each of the hydrophobically limited regions of the upper surface of the membrane. The cells were allowed to migrate into the bottom chamber for 5 h at 37 °C in 5% CO2. After this period, the membrane was removed and its topside was carefully wiped and washed with PBS to eliminate non-migrated cells. Migrated cells were transferred using a \"funnel\" adaptor to a receiving 96-well plate and the cell number was determined by using the CyQuant™ NF cell proliferation assay (Invitrogen) based on the measurement of cellular DNA content via fluorescent dye binding. Following the manufacturer's directions, 50 µL of CyQuant™ dye reagent/HBSS buffer (1/500 [v/v]) were added to each well of the above mentioned receiving 96-well plate. After incubation for 0.5 h at room temperature the plate was sealed and the fluorescence intensity of each sample was measured by using a Wallac 1420 VICTOR^2™ plate reader (PerkinElmer) with excitation at 485 nm and emission detection at 535 nm. Finally, the data were normalized by using the controls and IC50-values were determined using GraphPad Prism™ (GraphPad) by fitting a logarithmic curve to the averaged datapoints."}, "[3]": {"test": "Plasma stability, human plasma", "type": "in vitro ADME", "details": "human plasma, 37° C, last time point 1440 min", "description": "as §1"}, "[4]": {"test": "Drug loading calculations via maintenance dose rate (rate of infusion)", "details": "CLiv-mouse values scaled by 0.127 (GFR human/GFR mouse)", "description": "The drug load for an implant comprising a peptide of the invention was calculated following the basic principles in pharmacokinetics (see also J. Gabrielsson, D. Weiner, \"Pharmacokinetics and Pharmaco-dynamics Data Analysis: Concepts and Applications\", 4th edition, Swedish Pharmaceutical Press, Stockholm, Sweden, 2006) whereby the maintainance dose rate (rate of infusion, Rin) can be defined as the rate at which a drug is to be administered to reach a steady state of a certain dose in the plasma. The maintainance dose rate can be expressed using the correlation Rin [g/(h*kg)] = CLiv[L/(h*kg)] x Css,eff [g/L], wherein CLiv is the clearance (i.v. - admin.) and Css,eff the effective concentration of the drug in the plasma at steady state considering an efficacy margin A: Css,eff [g/L] = A x (IC50/fu) x MW [(mol/L)*(g/mol)]. Therefore, the total amount of a drug loaded into an implant providing for a constant effective concentration of that drug in the plasma for a certain period of time in a subject of a certain body weight can be calculated by applying the following correlation: Drugload [g/subject] = Rin [g/(h*kg)] x duration[h] x BW [kg/subject]. [formula]\nFurther pre-conditions are an efficacy margin of A = 3, a study duration of 672 h (28 days) and a body weight of a human suject of 70 kg. The glomerular filtration rate (GFR) which mainly influences the clearance of the peptides is highly dependent on the species. In general, the GFR of humans is averaged to be 107 mL/(h*kg) compared to the GFR of mouse being 840 mL/(h*kg). Therefore, the CLiv-mouse values indicated in Table 5b were allometrically scaled by 107 mL/(h*kg)/840 mL/(h*kg) = 0.127 before employed in the above described correlations."}}, "note": "Bridge positions count the residues as written; N and C are the ends. Square brackets hold non-standard residues; d marks the D form. Peptide text beside a SMILES is read from it. Lys(iPr) = CC(C)NCCCC[C@H](N)C(=O)O; Orn(iPr) = CC(C)NCCC[C@H](N)C(=O)O; Dab = NCC[C@H](N)C(=O)O", "data": [{"smiles": "CC(C)NCCCC[C@@H]1NC(=O)[C@H](CCC(N)=O)NC(=O)[C@H](Cc2ccc(O)cc2)NC(=O)[C@@H]2CSSC[C@H](NC(=O)[C@H](Cc3ccc(O)cc3)NC(=O)[C@H](Cc3c[nH]cn3)NC(=O)[C@H](Cc3ccc(O)cc3)NC(=O)[C@@H]3CCCN3C(=O)[C@H]3CCCN3C1=O)C(=O)N[C@@H](CO)C(=O)N[C@@H](C)C(=O)N[C@H](Cc1ccc(O)cc1)C(=O)N[C@@H](CCCNC(C)C)C(=O)N[C@@H](CCCNC(=N)N)C(=O)N[C@@H](Cc1ccc(O)cc1)C(=O)N2", "note": "[Ex. 5, cyclo(-Tyr^1-His^2-Tyr^3-Cys^4-Ser^5-Ala^6-^DTyr^7-Orn(iPr)^8-Arg^9-Tyr^10-Cys^11-Tyr^12-Gln^13-Lys(iPr)^14-^DPro^15-Pro^16-), disulfide bond between Cys^4 and Cys^11] (cyclo(YHYCSA[dY][Orn(iPr)]RYCYQ[Lys(iPr)][dP]P); disulfide 4-11)", "values": [{"measurement": "Hemolysis at 100 µM", "setting": "[1]", "result": 3.5, "unit": "%"}, {"measurement": "Plasma stability mouse pl. T1/2", "setting": "[2]", "result": 24, "unit": "h"}, {"measurement": "IC50", "setting": "CXCR4 receptor", "result": "0.43 ± 0.24", "unit": "nM"}, {"measurement": "Plasma stability human pl. T1/2", "setting": "[3]", "result": 24, "unit": "h"}, {"measurement": "CLiv, human (allometric scaled)", "setting": "[4]", "result": 0.106, "unit": "L/h/kg"}]}, {"smiles": "CC(C)NCCCC[C@@H]1NC(=O)[C@H](CCC(N)=O)NC(=O)[C@H](Cc2ccc(O)cc2)NC(=O)[C@@H]2CSSC[C@H](NC(=O)[C@H](C)NC(=O)[C@H](Cc3c[nH]cn3)NC(=O)[C@H](Cc3ccc(O)cc3)NC(=O)[C@@H]3CCCN3C(=O)[C@H]3CCCN3C1=O)C(=O)N[C@@H](CO)C(=O)N[C@@H](C)C(=O)N[C@H](Cc1ccc(O)cc1)C(=O)N[C@@H](CCN)C(=O)N[C@@H](CCCNC(=N)N)C(=O)N[C@@H](Cc1ccc(O)cc1)C(=O)N2", "note": "[Ex. 3, cyclo(-Tyr^1-His^2-Ala^3-Cys^4-Ser^5-Ala^6-^DTyr^7-Dab^8-Arg^9-Tyr^10-Cys^11-Tyr^12-Gln^13-Lys(iPr)^14-^DPro^15-Pro^16-), disulfide bond between Cys^4 and Cys^11] (cyclo(YHACSA[dY][Dab]RYCYQ[Lys(iPr)][dP]P); disulfide 4-11)", "values": [{"measurement": "Hemolysis at 100 µM", "setting": "[1]", "result": 1.0, "unit": "%"}, {"measurement": "Plasma stability mouse pl. T1/2", "setting": "[2]", "result": 24, "unit": "h"}, {"measurement": "IC50", "setting": "CXCR4 receptor", "result": "0.11 ± 0.01", "unit": "nM"}, {"measurement": "Plasma stability human pl. T1/2", "setting": "[3]", "result": 24, "unit": "h"}, {"measurement": "CLiv, human (allometric scaled)", "setting": "[4]", "result": 0.141, "unit": "L/h/kg"}]}]}
